This note sets out measurements from US8889714B2, “3,4-substituted piperidine derivatives as renin inhibitors” (Actelion Pharmaceuticals Ltd., priority 2008, dated 2014).

Like-named read-outs stand apart in the source and are kept apart here.

Broadly, the IC50 is the concentration needed to halve the response being measured.

The target in data set [1] is T1, Plasma renin activity (PRA) (Homo sapiens, UniProt P00797).
T1 construct: from tissue; host or cells: plasma of female double transgenic rats (human renin and angiotensinogen transgenes)
T1 sequence (P00797 67-406): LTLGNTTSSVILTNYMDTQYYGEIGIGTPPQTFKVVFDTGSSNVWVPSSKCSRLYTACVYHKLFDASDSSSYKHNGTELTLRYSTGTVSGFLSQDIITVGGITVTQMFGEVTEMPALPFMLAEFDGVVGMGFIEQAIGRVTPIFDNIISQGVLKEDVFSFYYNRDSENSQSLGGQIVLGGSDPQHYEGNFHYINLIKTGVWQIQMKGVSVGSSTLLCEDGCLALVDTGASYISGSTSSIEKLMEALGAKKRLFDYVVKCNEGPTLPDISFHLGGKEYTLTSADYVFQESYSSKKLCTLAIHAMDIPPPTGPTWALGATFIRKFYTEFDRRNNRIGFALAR
The experiment in a line: Plasma renin activity (PRA) inhibition in dTG rats after TD delivery. Format: in vivo, rat. Conditions: TD 10 mg in DMSO (33 mg/kg); PRA at T4h vs T0h. The protocol:
(§1) For transdermal delivery, double transgenic rats with implanted pressure transmitters were dosed with a single application on the shaved skin of the rat of vehicle (250 μl of 100% DMSO; n=4) or of the test compound (10 mg in 250 μl of 100% DMSO, i.e. 33 mg/kg; n=5). The rat was lightly sedated under 2.5% isoflurane anesthesia, and its back was shaved over a 4 cm^2 area. The animal was returned to his cage to recover from anesthesia. Twenty-four hours later, the rat was lightly sedated under 2.5% isoflurane anesthesia, and the shaved area disinfected with 3 passes of ethanol.
A blood sample (0.3 ml) was taken by tail bleed or jugular iv in the telemetrized dTGs, at T0h, T4h and T24h after TD delivery to determine test substance levels and bioavailability (estimated as area under the curve, or AUC) of the active substance in systemic circulation. Plasma renin activity (PRA) was also measured at T0h and T4h. The effect of the test substance on PRA is expressed as the percentage of inhibition of PRA at T4h vs T0h.

The subject of data set [2] is female double transgenic rats (transgenic for human renin and angiotensin). The data set can be described thus: Telemetry of mean arterial blood pressure after oral vs transdermal delivery in double transgenic rats. Format: in vivo, rat. The settings on record: for ABC36h: area between curves of MAP. The protocol:
Female double transgenic rats (rats transgenic for human renin and […] (see, e.g., Bohlender et al., J Am Soc Nephrol 11:2056 (2000)) were developed. All animals were maintained under identical conditions and had free access to normal pelleted rat chow and water. Rats were initially treated with enalapril (1 mg/kg/day), starting 3 weeks after birth and during 9 weeks. Telemetry transmitters are implanted within 2 to 4 weeks after cessation of enalapril treatment. After approximately two weeks following cessation of enalapril treatment, the double transgenic rats are hypertensive with mean arterial blood pressures in the range of 160-170 mmHg.
Transmitter implantation—The rats were anesthetized using isoflurane (via inhalation, 2-3%) The pressure transmitter was implanted under aseptic conditions into the peritoneal cavity with the sensing catheter placed in the descending aorta below the renal arteries pointing upstream. The transmitter was sutured to the abdominal musculature, the skin closed, and the rats were individually housed in a cage, placed on a telemetry receiver pad to enable collection of the blood pressure data during recovery from anesthesia and thereafter. The rats were single-caged for the duration of the recording of telemetry data.
Telemetry System—Telemetry units were obtained from Data Sciences International (DSI, St. Paul, Minn.). […] The tip of the catheter was filled with a viscous gel that prevents blood reflux. The implants (length=2.5 cm, diameter=1.2 cm) weighed 9 g and have a typical battery life of 6 months. A receiver platform (RPC-1, DSI) connected the radio signal to digitized input that was sent to a dedicated personal computer. Arterial pressures were calibrated by using an input from an ambient-pressure reference (APR-1, DSI). Systolic, mean and diastolic blood pressure was expressed in millimeter of mercury (mmHg).
Telemetry data analysis—Signals received by the receivers were digitized for 10 seconds every 5 minutes, at 500 Hz. From this signal, mean arterial pressure (MAP), systolic and diastolic blood pressure (SBP and DPB), pulse pressure (PP), heart rate (HR) and activity (ACT) were derived. A one-hour moving average of the data was then performed by the DSI analysis software. Data were then exported to an Excel template for the calculation of group statistics, areas between curves (ABC), maximal effect and duration of MAP reduction.
Drug administration—For oral delivery, double transgenic rats with implanted pressure transmitters were dosed by oral gavage with a single bolus of vehicle (0.5% methocel; 5 ml/kg) or of the test substance (30 mg/5 ml/kg) (n=5 per group). After dosing, the rat was returned to his cage. Blood pressure data were collected up to 5 days after oral dosing.
as §1
After evaporation of the ethanol, a volume of 250 μl of 100% DMSO only, or of the compound dissolved in a 100% DMSO solution was applied over the shaved area using a micropipette. After complete evaporation of the DMSO solution (within 5 min after application), an occlusive transparent, waterproof film (OpSite) was taped to the back of the animal over the shaved area, and a jacket was fitted on the animal. Isoflurane inhalation was stopped, and the animal individually caged for telemetry data collection. Blood pressure data were collected up to 5 days after application of the compound/DMSO solution.

A short description of data set [3]: Test substance levels / bioavailability (AUC) in systemic circulation of telemetrized dTG rats. Format: in vivo. The settings on record: double transgenic (dTG), rat, T24h, read-out: AUC24h.
Another data set addresses T2, Human recombinant renin (Homo sapiens, UniProt P00797).
T2 construct: purchased Proteos
T2 sequence (P00797 67-406): T1 sequence (P00797 67-406)
The data set can be described thus: Inhibition of human recombinant renin (buffer). In kind it is biochemical. Conditions: 100 pM renin, 50 mM MOPS pH 7.4, 37° C., 3 hours; read-out: Human Renin IC50 (buffer). As for the experimental part: Fluorescence is measured at times 0 and 3 hours with a SpectraMax Gemini EM reader set at an excitation wavelength of 328 nm and at an emission wavelength of 388 nm. Background fluorescence at t=0 is subtracted from the measurement at t=3 hours. Inhibitory activity of the compounds is expressed as IC50.

For data set [4], the target named is T3, recombinant renin in human plasma (Homo sapiens, UniProt P00797).
T3 construct: purchased Proteos
T3 sequence (P00797 67-406): T1 sequence (P00797 67-406)
The experiment in a line: Inhibition of renin in human plasma. Format: biochemical. The settings on record: human EDTA plasma, 1 nM recombinant renin added, 37° C., 1 hour; read-out: Human Renin IC50 (plasma). The protocol: Human EDTA-collected plasma is rapidly thawed in warm water and centrifuged at 2900 g for 15 minutes at 4° C. The supernatant is collected and recombinant renin (Proteos) is added at a final concentration of 1 nM. […] The plate is incubated at 37° C. for 1 hour. […] Background fluorescence at t=0 is subtracted from the measurement at t=1 hour. Inhibitory activity of the compounds is expressed as IC50.

Where [5] appears, read: PO, single oral gavage 30 mg/5 ml/kg in 0.5% methocel.
Where [6] appears, read: TD, single application 10 mg in 250 μl 100% DMSO (33 mg/kg) on shaved skin.

Turning to `COCCCc1cc(CN(C(=O)[C@H]2CNCC[C@@H]2c2ccn(C)c(=O)c2)C2CC2)cc(Br)c1C` (relative stereo) [test substance, trans-N-({3-Bromo-4-methyl-5-[3-(methyloxy)propyl]phenyl}methyl)-N-cyclopropyl-4-(1-methyl-2-oxo-1,2-dihydro-4-pyridinyl)-3-piperidinecarboxamide], the “PRA inhibition at 4 h” value in data set [1] came out at 98%. In addition, in data set [2] (setting [5]), the “duration of MAP reduction” value is given as 2 days, the “max MAP decrease” value is recorded as 57 mmHg and the ABC36h was 1143 mmHg * h. Further, in data set [2] (setting [6]), the “duration of MAP reduction” value came out at 1 days, the “max MAP decrease” value is recorded as 30 mmHg and the ABC36h worked out at 514 mmHg * h. The AUC(0-t) in data set [3] (topical, TD 10 mg in DMSO (33 mg/kg), blood samples at T0h, T4h) is 2.9 µM·h. For the same compound, the AUC(0-t) in data set [3] (PO 30 mg/kg, blood samples at T0, T6h) came out at 1.8 µM·h.
As to `COCCCc1ccc2c(c1)C(N(C(=O)[C@H]1CNCCC1c1ccn(C)c(=O)c1)C1CC1)CCC2` (single isomer, unassigned) [Example 100 Diastereomer B, trans-N-Cyclopropyl-N-[7-(3-methoxypropyl)-1,2,3,4-tetrahydro-1-naphthalenyl]-4-(1-methyl-2-oxo-1,2-dihydro-4-pyridinyl)-3-piperidinecarboxamide], the IC50 on Human recombinant renin is 3.6 nM; in data set [4], 16.2 nM.
For `Cn1ccc(C2CCNC[C@@H]2C(=O)N(Cc2cc(CCC#N)cc(Cl)c2Cl)C2CC2)cc1=O` (stereo in doubt) [Example 30, trans-N-Cyclopropyl-N-{[2,3-dichloro-5-(2-cyanoethyl)phenyl]methyl}-4-(1-methyl-2-oxo-1,2-dihydro-4-pyridinyl)-3-piperidinecarboxamide], in that order: 8.4 nM and 17 nM.
